From patent US10239843B2 (CANCER RESEARCH TECHNOLOGY LIMITED, priority 2014, dated 2019)
Like-named read-outs stand apart in the source and are kept apart here.

How the values were obtained:
[1] = biological target: Human Full Length PARG (Homo sapiens (Human), UniProt Q86W56); test: PARG enzyme assay (TR-FRET); assay type: biochemical
[2] = tested on: PARG in HeLa cell line; test: PARG cell assay (PAR chain immunofluorescence after MMS); assay type: cell-based; details: HeLa cells
Procedure, shortened: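 Nuclear poly(ADP-ribose) chains in HeLa cells are read by indirect immunofluorescence with a mouse anti-PAR antibody applied overnight at 4° C after fixing and permeabilising. Cells get 1 h of compound, then 50 μg/mL MMS (final) for another hour. PAR persisting at that point reflects PARG inhibition.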

[3] = read-out: PARG Biochem IC50 Geomean
[4] = Homo sapiens, MMS 50 μg/mL, read-out: PARG Cell IC50 Geomean
[5] = MMS 50 μg/mL, read-out: PARG Cell IC50 Geomean
[6] = Homo sapiens, MMS treatment, read-out: PARG Cell IC50
[7] = MMS treatment, read-out: PARG Cell IC50

Chain of Human Full Length PARG (Q86W56 whole entry): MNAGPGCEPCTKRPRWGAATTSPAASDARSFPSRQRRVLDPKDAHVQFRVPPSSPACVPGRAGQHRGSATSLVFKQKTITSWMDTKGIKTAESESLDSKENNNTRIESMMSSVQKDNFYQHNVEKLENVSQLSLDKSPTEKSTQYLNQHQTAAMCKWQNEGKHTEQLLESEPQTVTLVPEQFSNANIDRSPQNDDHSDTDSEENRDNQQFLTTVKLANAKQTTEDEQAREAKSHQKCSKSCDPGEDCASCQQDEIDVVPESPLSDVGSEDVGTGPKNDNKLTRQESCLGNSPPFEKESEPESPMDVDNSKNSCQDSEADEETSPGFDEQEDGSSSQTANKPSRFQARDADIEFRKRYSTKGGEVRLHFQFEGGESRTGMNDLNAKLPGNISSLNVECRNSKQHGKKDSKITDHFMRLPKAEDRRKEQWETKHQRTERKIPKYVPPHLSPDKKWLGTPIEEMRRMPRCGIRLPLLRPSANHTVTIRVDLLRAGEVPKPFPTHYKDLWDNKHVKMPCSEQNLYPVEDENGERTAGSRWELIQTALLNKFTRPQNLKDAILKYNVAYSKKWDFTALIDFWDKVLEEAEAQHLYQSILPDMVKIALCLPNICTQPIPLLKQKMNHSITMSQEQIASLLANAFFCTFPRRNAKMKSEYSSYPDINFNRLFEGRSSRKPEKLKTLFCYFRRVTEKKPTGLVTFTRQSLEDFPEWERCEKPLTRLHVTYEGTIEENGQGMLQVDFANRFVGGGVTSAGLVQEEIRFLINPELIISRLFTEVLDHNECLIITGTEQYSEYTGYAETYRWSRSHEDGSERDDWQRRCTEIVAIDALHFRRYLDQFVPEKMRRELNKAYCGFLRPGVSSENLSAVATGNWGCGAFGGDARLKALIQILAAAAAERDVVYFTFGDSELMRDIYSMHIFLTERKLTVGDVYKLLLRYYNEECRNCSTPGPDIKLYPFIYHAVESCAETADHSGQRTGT

IC50 [1, 3]	IC50 ([1]; read-out: PARG Biochem IC50)	IC50 [2, 6]	SMILES	other results
25 nM			Cn1cc(Cn2c(=O)c3cc(S(=O)(=O)NC4(C)CC4)c(F)cc3n(CC3CC3)c2=O)cn1 [Example 388]	IC50 [2, 4]: 31 nM
60 nM			CCn1c(=O)n(Cc2cnn(C)c2)c(=O)c2cc(S(=O)(=O)NC3(C)CC3)c(F)cc21 [Example 389, 1-Ethyl-7-fluoro-N-(1-methylcyclopropyl)-3-[(1-methylpyrazol-4-yl)methyl]-2,4-dioxo-quinazoline-6-sulfonamide]	IC50 [2, 4]: 79 nM
102 nM			Cn1cc(Cn2c(=O)c3cc(S(=O)(=O)NC4(C)CC4)c(F)cc3n(Cc3ccc(F)cc3)c2=O)cn1 [Example 390, 7-Fluoro-1-[(4-fluorophenyl)methyl]-N-(1-methylcyclopropyl)-3-[(1-methylpyrazol-4-yl)methyl]-2,4-dioxo-quinazoline-6-sulfonamide]	IC50 [2, 5]: 70 nM
24 nM			Cc1cc(Cn2c(=O)n(Cc3cnn(C)c3)c(=O)c3cc(S(=O)(=O)NC4(C)CC4)c(F)cc32)on1 [Example 391, 7-Fluoro-N-(1-methylcyclopropyl)-1-[(3-methylisoxazol-5-yl)methyl]-3-[(1-methylpyrazol-4-yl)methyl]-2,4-dioxo-quinazoline-6-sulfonamide]	IC50 [2, 5]: 67 nM
47 nM			Cc1cc(Cn2c(=O)n(Cc3cnn(C)c3)c(=O)c3cc(S(=O)(=O)NC4(C)CC4)c(F)cc32)n(C)n1 [Example 392, 1-[(2,5-Dimethylpyrazol-3-yl)methyl]-7-fluoro-N-(1-methylcyclopropyl)-3-[(1-methylpyrazol-4-yl)methyl]-2,4-dioxo-quinazoline-6-sulfonamide]	IC50 [2, 4]: 113 nM
28 nM			Cn1cc(Cn2c(=O)c3cc(S(=O)(=O)NC4(C)CC4)c(F)cc3n(Cc3cnn(C)c3)c2=O)cn1 [Example 393, 7-Fluoro-N-(1-methylcyclopropyl)-1,3-bis[(1-methylpyrazol-4-yl)methyl]-2,4-dioxo-quinazoline-6-sulfonamide]	IC50 [2, 5]: 84 nM
66 nM			Cn1cc(Cn2c(=O)c3cc(S(=O)(=O)NC4(C)CC4)c(F)cc3n(CC3COC3)c2=O)cn1 [Example 394, 7-Fluoro-N-(1-methylcyclopropyl)-3-[(1-methylpyrazol-4-yl)methyl]-1-(oxetan-3-ylmethyl)-2,4-dioxo-quinazoline-6-sulfonamide]	IC50 [2, 4]: 326 nM
60 nM			Cn1cc(Cn2c(=O)c3cc(S(=O)(=O)NC4(C)CC4)c(F)cc3n(CC3CCOC3)c2=O)cn1 (centres unmarked) [Example 395, 7-Fluoro-N-(1-methylcyclopropyl)-3-[(1-methylpyrazol-4-yl)methyl]-2,4-dioxo-1-(tetrahydrofuran-3-ylmethyl)quinazoline-6-sulfonamide]	IC50 [2, 4]: 156 nM
11 nM			Cc1nc(C)c(Cn2c(=O)n(Cc3cnn(C)c3)c(=O)c3cc(S(=O)(=O)NC4(C)CC4)c(F)cc32)s1 [Example 396, 1-[(2,4-Dimethylthiazol-5-yl)methyl]-7-fluoro-N-(1-methylcyclopropyl)-3-[(1-methylpyrazol-4-yl)methyl]-2,4-dioxo-quinazoline-6-sulfonamide]	IC50 [2, 4]: 17 nM
	44 nM	257 nM	Cn1cc(Cn2c(=O)c3cc(S(=O)(=O)NC4(C)CC4)c(F)cc3n(CC3(C)COC3)c2=O)cn1 [Example 398, 7-Fluoro-3-((1-methyl-1H-pyrazol-4-yl)methyl)-N-(1-methylcyclopropyl)-1-((3-methyloxetan-3-yl)methyl)-2,4-dioxo-1,2,3,4-tetrahydroquinazoline-6-sulfonamide]	
	394 nM	625 nM	Cc1cc(Cn2c(=O)c3cc(S(=O)(=O)NC4(C)CC4)ccc3n(CCCO)c2=O)on1 [Example 407, 1-(3-Hydroxypropyl)-N-(1-methylcyclopropyl)-3-[(3-methylisoxazol-5-yl)methyl]-2,4-dioxo-quinazoline-6-sulfonamide]	
	648 nM	287 nM	Cn1cc(Cn2c(=O)c3cc(S(=O)(=O)NC4(CF)CC4)ccc3n(C)c2=O)cn1 [Example 408, N-[1-(Fluoromethyl)cyclopropyl]-1-methyl-3-[(1-methylpyrazol-4-yl)methyl]-2,4-dioxo-quinazoline-6-sulfonamide]	
	263 nM	126 nM	Cn1cc(Cn2c(=O)c3cc(S(=O)(=O)NC4(C)CC4)ccc3n(CCF)c2=O)cn1 [Example 410, 1-(2-Fluoroethyl)-N-(1-methylcyclopropyl)-3-[(1-methylpyrazol-4-yl)methyl]-2,4-dioxo-quinazoline-6-sulfonamide]	
	409 nM	104 nM	Cc1cc(Cn2c(=O)c3cc(S(=O)(=O)NC4(C)CC4)ccc3n(CCF)c2=O)on1 [Example 411, 1-(2-Fluoroethyl)-N-(1-methylcyclopropyl)-3-[(3-methylisoxazol-5-yl)methyl]-2,4-dioxo-quinazoline-6-sulfonamide]	
	430 nM		Cn1cc(Cn2c(=O)[nH]c3ccc(S(=O)(=O)NC4(CF)CC4)cc3c2=O)cn1 [Example 416, N-[1-(Fluoromethyl)cyclopropyl]-3-[(1-methylpyrazol-4-yl)methyl]-2,4-dioxo-1H-quinazoline-6-sulfonamide]	IC50 [2, 7]: 1320 nM

Second part, the molecule before the results:

SMILES	IC50 [1, 3]	IC50 ([1]; read-out: PARG Biochem IC50)	IC50 [2, 6]	other results
Cn1cc(Cn2c(OCC3(C)COC3)nc3cc(F)c(S(=O)(=O)NC4(C)CC4)cc3c2=O)cn1 [Example 397, 7-Fluoro-3-((1-methyl-1H-pyrazol-4-yl)methyl)-N-(1-methylcyclopropyl)-2-((3-methyloxetan-3-yl)methoxy)-4-oxo-3,4-dihydroquinazoline-6-sulfonamide]		282 nM	256 nM	
Cc1ncc(Cn2c(=O)c3cc(S(=O)(=O)NC4(C#N)CC4)ccc3n(CC3CC3)c2=O)s1 [Example 399, N-(1-Cyanocyclopropyl)-1-(cyclopropylmethyl)-3-[(2-methylthiazol-5-yl)methyl]-2,4-dioxo-quinazoline-6-sulfonamide]		31 nM	87 nM	
Cc1cc(Cn2c(=O)n(Cc3cnc(C)s3)c(=O)c3cc(S(=O)(=O)NC4(C#N)CC4)ccc32)on1 [Example 400, N-(1-Cyanocyclopropyl)-1-[(3-methylisoxazol-5-yl)methyl]-3-[(2-methylthiazol-5-yl)methyl]-2,4-dioxo-quinazoline-6-sulfonamide]		27 nM	320 nM	
Cc1ncc(Cn2c(=O)c3cc(S(=O)(=O)NC4(C#N)CC4)ccc3n(Cc3sc(C)nc3C)c2=O)s1 [Example 401, N-(1-Cyanocyclopropyl)-1-[(2,4-dimethylthiazol-5-yl)methyl]-3-[(2-methylthiazol-5-yl)methyl]-2,4-dioxo-quinazoline-6-sulfonamide]		8 nM	101 nM	
Cc1ncc(Cn2c(=O)c3cc(S(=O)(=O)NC4(C#N)CC4)ccc3n(Cc3ccc(F)cc3)c2=O)s1 [Example 402, N-(1-Cyanocyclopropyl)-1-[(4-fluorophenyl)methyl]-3-[(2-methylthiazol-5-yl)methyl]-2,4-dioxo-quinazoline-6-sulfonamide]		66 nM	167 nM	
C#CCn1c(=O)n(Cc2cnc(C)s2)c(=O)c2cc(S(=O)(=O)NC3(C#N)CC3)ccc21 [Example 403, N-(1-Cyanocyclopropyl)-3-[(2-methylthiazol-5-yl)methyl]-2,4-dioxo-1-prop-2-ynyl-quinazoline-6-sulfonamide]		84 nM		IC50 [2, 7]: 265 nM
Cc1cc(Cn2c(=O)n(Cc3cnn(C)c3)c(=O)c3cc(S(=O)(=O)NC4(C#N)CC4)c(F)cc32)on1 [Example 404, N-(1-Cyanocyclopropyl)-7-fluoro-1-[(3-methylisoxazol-5-yl)methyl]-3-[(1-methylpyrazol-4-yl)methyl]-2,4-dioxo-quinazoline-6-sulfonamide]		71 nM	3860 nM	
Cc1cc(Cn2c(=O)c3cc(S(=O)(=O)NC4(C)CC4)ccc3n(CC3CCC(F)(F)CC3)c2=O)on1 [Example 405, 1-[(4,4-Difluorocyclohexyl)methyl]-N-(1-methylcyclopropyl)-3-[(3-methylisoxazol-5-yl)methyl]-2,4-dioxo-quinazoline-6-sulfonamide]		248 nM	144 nM	
Cc1cc(Cn2c(=O)c3cc(S(=O)(=O)NC4(C)CC4)ccc3n(CCC(=O)N(C)C)c2=O)on1 [Example 406, N, N-Dimethyl-3-[6-[(1-methylcyclopropyl)sulfamoyl]-3-[(3-methylisoxazol-5-yl)methyl]-2,4-dioxo-quinazolin-1-yl]propanamide]		456 nM	800 nM	
Cc1cc(Cn2c(=O)c3cc(S(=O)(=O)NC4(C)CC4)ccc3n(CC3CC(=O)C3)c2=O)on1 [Example 412, N-(1-Methylcyclopropyl)-3-[(3-methylisoxazol-5-yl)methyl]-2,4-dioxo-1-[(3-oxocyclobutyl)methyl]quinazoline-6-sulfonamide]		440 nM	289 nM	
COC(C)(C)Cn1c(=O)n(Cc2cc(C)no2)c(=O)c2cc(S(=O)(=O)NC3(C)CC3)ccc21 [Example 413, 1-(2-Methoxy-2-methyl-propyl)-N-(1-methylcyclopropyl)-3-[(3-methylisoxazol-5-yl)methyl]-2,4-dioxo-quinazoline-6-sulfonamide]		469 nM	305 nM	
Cc1cc(Cn2c(=O)c3cc(S(=O)(=O)NC4(C)CC4)ccc3n(CC(=O)N3CCC3)c2=O)on1 [Example 414, 1-[2-(Azetidin-1-yl)-2-oxo-ethyl]-N-(1-methylcyclopropyl)-3-[(3-methylisoxazol-5-yl)methyl]-2,4-dioxo-quinazoline-6-sulfonamide]		2080 nM		IC50 [2, 7]: 9220 nM
Cc1cc(Cn2c(=O)c3cc(S(=O)(=O)NC4(C)CC4)ccc3n(CC3CNC3)c2=O)on1 [Example 415, 1-(Azetidin-3-ylmethyl)-N-(1-methylcyclopropyl)-3-[(3-methylisoxazol-5-yl)methyl]-2,4-dioxo-quinazoline-6-sulfonamide]		609 nM	1440 nM	
